We go through two molecules from US20100016156A1, “Pesticidal Mixtures” (BASF SE, priority 2007, published 2010).

One assay deals with Pyrenophora teres. Briefly: Control of net blotch on barley (protective spray, greenhouse). As to conditions: 6 days after inoculation, untreated 70% infection. The format is in vivo, Pyrenophora (syn. Drechslera) teres. The method, then: Preparation: The spray solutions were prepared in several steps: A stock solution was prepared: a mixture of acetone and/or DMSO and the wetting agent/emulsifier Uniperol, which is based on ethoxylated alkylphenoles, in a relation (volume) solvent-emulsifier of 99 to 1 was added to 25 mg of the compound to give a total of 10 ml. Water was then added to total volume of 100 ml. This stock solution was diluted with the described solvent-emulsifier-water mixture to the given concentration. The first fully developed leaves of pot grown barley plants were sprayed to run-off with an aqueous suspension, containing the concentration of active ingredient or their mentioned in the table below. The next day the treated plants were inoculated with an aqueous spore suspension of Pyrenophora (syn. Drechslera) teres. Then the trial plants were immediately transferred to a humid chamber in the greenhouse. After 6 days of cultivation at 20-24° C. and a relative humidity close to 70%, the extent of fungal attack on the leaves was visually assessed as % leaf area. Evaluation was carried out analogously to example 1.

The subject of assay [1] is Blumeria graminis f. sp. tritici. Briefly: Control of powdery mildew on wheat (protective spray, greenhouse). The format is in vivo. The settings on record: 7 days after inoculation, untreated 70% infection. Here is the method: Preparation: The spray solutions were prepared in several steps:
A stock solution was prepared: a mixture of acetone and/or DMSO and the wetting agent/emulsifier Uniperol, which is based on ethoxylated alkylphenoles, in a relation (volume) solvent-emulsifier of 99 to 1 was added to 25 mg of the compound to give a total of 10 ml. Water was then added to total volume of 100 ml.
This stock solution was diluted with the described solvent-emulsifier-water mixture to the given concentration.
The first fully developed leaves of pot grown wheat were sprayed to run-off with an aqueous suspension, containing the concentration of active ingredient or their mixture mentioned in the table below. […] After cultivation in the greenhouse for 7 days at 22-26° C. and a relative humidity between 60 to 90% the extent of fungal attack on the leaves was visually assessed as % diseased leaf area.
The visually determined percentages of infected leaf areas were converted into efficacies in % of the untreated control:
The efficacy (E) is calculated as follows using Abbot's formula: […]
The expected efficacies of active compound combinations were determined using Colby's formula (Colby, S. R. “Calculating synergistic and antagonistic responses of herbicide combinations”, Weeds, 15, 20-22, 1967) and compared with the observed efficacies. […]

Structures are written as SMILES.

Consider `CO/N=C(/C1=NOCCO1)c1ccccc1Oc1ncnc(Oc2ccccc2Cl)c1F` [Fluoxastrobin, (E)-{2-[6-(2-chlorophenoxy)-5-fluoropyrimidin-4-yloxy]phenyl}(5,6-dihydro-1,4,2-dioxazin-3-yl)methanone O-methyloxime], for which the “Efficacy in % of the untreated control” value (with Pyrenophora teres (0.25 ppm in spray liquor); in assay [1] (0.063 ppm in spray liquor)) was 0% each time.
In the case of `CN/C(=N\[N+](=O)[O-])NCc1cnc(Cl)s1` [Clothianidine, (E)-1-(2-chloro-1,3-thiazol-5-ylmethyl)-3-methyl-2-nitroguanidine], the “Efficacy in % of the untreated control” value (in the assay with Pyrenophora teres (4 ppm in spray liquor); in the assay with Pyrenophora teres (16 ppm in spray liquor); in assay [1] (0.25 ppm in spray liquor)) was 0% each time.
